pIC50, pKi: −log10 of the molar value.
Tests used:
PI3Kα = PI3Kα (Homo sapiens (Human), UniProt P42336); details: read-out: PI3Kα AlphaScreen ® Ki
[1] = test system: phosphorylation of Akt at Serine 473 in U87 MG cells; assay: cells; details: Homo sapiens, U-87 MG, 2 h, read-out: U87Cell IC50, pAkt (Ser 473), U87 MG cells, two hours with compound

Chain of PI3Kα (P42336 whole entry): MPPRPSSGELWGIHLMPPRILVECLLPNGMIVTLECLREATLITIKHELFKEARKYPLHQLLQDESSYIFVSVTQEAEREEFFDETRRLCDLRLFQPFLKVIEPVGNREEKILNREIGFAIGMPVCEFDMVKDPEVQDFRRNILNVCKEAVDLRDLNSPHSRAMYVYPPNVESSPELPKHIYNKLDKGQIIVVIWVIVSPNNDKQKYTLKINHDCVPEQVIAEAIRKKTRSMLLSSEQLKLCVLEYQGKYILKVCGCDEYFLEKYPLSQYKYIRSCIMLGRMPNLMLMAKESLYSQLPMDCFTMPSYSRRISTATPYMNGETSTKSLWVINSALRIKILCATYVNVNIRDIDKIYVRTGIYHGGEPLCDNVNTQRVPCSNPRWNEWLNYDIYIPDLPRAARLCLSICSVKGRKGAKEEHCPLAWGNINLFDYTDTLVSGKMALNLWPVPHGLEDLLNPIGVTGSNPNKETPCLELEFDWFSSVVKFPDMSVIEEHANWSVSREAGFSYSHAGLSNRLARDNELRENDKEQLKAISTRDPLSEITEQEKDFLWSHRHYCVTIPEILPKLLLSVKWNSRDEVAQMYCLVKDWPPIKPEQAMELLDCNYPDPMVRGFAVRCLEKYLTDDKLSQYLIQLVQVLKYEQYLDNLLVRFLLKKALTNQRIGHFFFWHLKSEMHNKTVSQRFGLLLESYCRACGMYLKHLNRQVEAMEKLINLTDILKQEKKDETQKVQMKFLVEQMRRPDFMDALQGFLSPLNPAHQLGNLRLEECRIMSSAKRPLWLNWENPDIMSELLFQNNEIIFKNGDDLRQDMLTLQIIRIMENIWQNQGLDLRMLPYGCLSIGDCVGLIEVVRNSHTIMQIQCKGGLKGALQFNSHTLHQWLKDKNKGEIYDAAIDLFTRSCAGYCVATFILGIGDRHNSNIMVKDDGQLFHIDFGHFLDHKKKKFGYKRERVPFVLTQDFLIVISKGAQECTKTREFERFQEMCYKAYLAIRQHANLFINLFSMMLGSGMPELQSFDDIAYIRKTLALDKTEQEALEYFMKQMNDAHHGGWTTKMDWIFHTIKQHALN
Chain of PI3Kα (P27986 whole entry partner): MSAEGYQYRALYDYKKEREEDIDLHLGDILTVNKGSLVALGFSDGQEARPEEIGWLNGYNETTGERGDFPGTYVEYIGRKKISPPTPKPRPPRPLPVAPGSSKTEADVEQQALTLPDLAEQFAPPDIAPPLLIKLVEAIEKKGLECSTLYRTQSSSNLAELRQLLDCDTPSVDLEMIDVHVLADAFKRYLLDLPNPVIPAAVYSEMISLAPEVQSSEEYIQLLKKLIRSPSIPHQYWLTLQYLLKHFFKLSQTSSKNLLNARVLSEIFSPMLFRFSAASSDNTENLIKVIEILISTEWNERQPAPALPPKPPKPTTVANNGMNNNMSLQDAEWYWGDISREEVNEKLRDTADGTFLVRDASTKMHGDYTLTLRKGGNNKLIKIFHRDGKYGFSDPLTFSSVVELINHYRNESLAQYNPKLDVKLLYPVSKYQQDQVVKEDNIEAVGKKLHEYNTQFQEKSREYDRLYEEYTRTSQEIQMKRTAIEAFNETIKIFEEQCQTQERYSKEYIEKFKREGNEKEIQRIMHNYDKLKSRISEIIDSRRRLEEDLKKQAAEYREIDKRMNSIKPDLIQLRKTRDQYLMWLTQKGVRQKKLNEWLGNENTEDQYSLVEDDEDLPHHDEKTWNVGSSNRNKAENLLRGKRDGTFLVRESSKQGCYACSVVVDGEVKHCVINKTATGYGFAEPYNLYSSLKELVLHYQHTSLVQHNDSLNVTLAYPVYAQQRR

| SMILES | pKi (PI3Kα) | pIC50 [1] |
| --- | --- | --- |
| COc1ccc(Nc2ncc(CNc3ccncc3)cc2-c2nc(C)nc3[nH]cnc23)cn1 [Example 81, N-(6-methoxypyridin-3-yl)-3-(2-methyl-9H-purin-6-yl)-5-((pyridin-4-ylamino)methyl)pyridin-2-amine] | 7.38 | 6.29 |
| COc1ccc(Nc2ncc(CNc3ccccn3)cc2-c2nc(C)nc3[nH]cnc23)cn1 [Example 82, N-(6-methoxypyridin-3-yl)-3-(2-methyl-9H-purin-6-yl)-5-((pyridin-2-ylamino)methyl)pyridin-2-amine] | 7.60 | 6.65 |
| COc1ccc(Nc2ncc(CNc3ccccc3)cc2-c2nc(C)nc3[nH]cnc23)cn1 [Example 83, N-(6-methoxypyridin-3-yl)-3-(2-methyl-9H-purin-6-yl)-5-((phenylamino)methyl)pyridin-2-amine] | 7.35 | 6.15 |
| COc1ccc(Nc2ncc(CN3CCN(C(=O)N(C)C)CC3)cc2-c2nc(C)nc3[nH]cnc23)cn1 [Example 87, 4-((6-(6-Methoxypyridin-3-Ylamino)-5-(2-Methyl-9H-Purin-6-yl)Pyridin-3-yl)Methyl)-N,N-Dimethylpiperazine-1-Carboxamide] | 7.37 | 6.68 |
| COc1ccc(Nc2ncc(Nc3ccccc3)cc2-c2nc(C)nc3[nH]cnc23)cn1 [Example 92, N2-(6-methoxypyridin-3-yl)-3-(2-methyl-9H-purin-6-yl)-N-5-phenylpyridine-2,5-diamine] | 7.48 | 6.04 |
| COc1ccc(CNc2cnc(Nc3ccc(OC)nc3)c(-c3nc(C)nc4[nH]cnc34)c2)cc1 [Example 95, N5-(4-methoxybenzyl)-N2-(6-methoxypyridin-3-yl)-3-(2-methyl-9H-purin-6-yl)pyridine-2,5-diamine] | 7.11 | 6.57 |
| COc1ccc(Nc2ncc(N3CCC(O)C3)cc2-c2nc(C)nc3[nH]cnc23)cn1 (centres unmarked) [Example 98, 1-(6-(6-Methoxypyridin-3-Ylamino)-5-(2-Methyl-9H-Purin-6-yl)Pyridin-3-yl)Pyrrolidin-3-ol] | 7.10 | 6.53 |
| COc1ccc(Nc2ncc(N3CCN(S(C)(=O)=O)CC3)cc2-c2nc(C)nc3[nH]cnc23)cn1 [Example 99, N-(6-Methoxypyridin-3-yl)-3-(2-Methyl-9H-Purin-6-yl)-5-(4-(Methylsulfonyl)Piperazin-1-yl)Pyridin-2-Amine] | 7.64 | 6.69 |
| Cc1nc(-c2cc(Cc3ccc(S(C)(=O)=O)cc3)cnc2Nc2ccc(N)nc2)c2nc[nH]c2n1 [Example 106, N5-(3-(2-methyl-9H-purin-6-yl)-5-(4-(methylsulfonyl)benzyl)pyridin-2-yl)pyridine-2,5-diamine] | 7.92 | 6.85 |
| Cc1nc(-c2cnccc2Nc2cccc3[nH]ncc23)c2nc[nH]c2n1 [Example 110, N-(3-(2-methyl-9H-purin-6-yl)pyridin-4-yl)-1H-indazol-4-amine] | 6.58 | 5.62 |
| COc1ccc(Nc2ccncc2-c2nc(C)nc3[nH]cnc23)cn1 [Example 111, 6-methoxy-N-(3-(2-methyl-9H-purin-6-yl)pyridin-4-yl)pyridin-3-amine] | 6.60 | 5.93 |
| COc1ccc(Nc2nc3ccccc3cc2-c2nc(C)nc3[nH]cnc23)cn1 [Example 113, N-(6-Methoxypyridin-3-yl)-3-(2-Methyl-9H-Purin-6-yl)Quinolin-2-Amine] | 7.42 | < 5.00 |
| COc1ccc(Nc2nc(N)ncc2-c2nc(C)nc(N)n2)cn1 [Example 118, 5-(4-amino-6-methyl-1,3,5-triazin-2-yl)-N4-(6-methoxypyridin-3-yl)pyrimidine-2,4-diamine] | 6.95 | 6.76 |
| COc1ccc(Nc2nc(N3CCOCC3)ncc2-c2nc(C)nc(N)n2)cn1 [Example 120, 4-(4-(6-methoxypyridin-3-ylamino)-2-morpholinopyrimidin-5-yl)-6-methyl-1,3,5-triazin-2-amine] | 7.01 | 6.83 |
| COc1ccc(Nc2nc(N3CCCC3)ncc2-c2nc(C)nc(N)n2)cn1 [Example 122, 4-(4-(6-methoxypyridin-3-ylamino)-2-(pyrrolidin-1-yl)pyrimidin-5-yl)-6-methyl-1,3,5-triazin-2-amine] | 7.29 | 6.14 |
| COc1ccc(Nc2nc(N3CCCCC3)ncc2-c2nc(C)nc(N)n2)cn1 [Example 123, 4-(4-(6-methoxypyridin-3-ylamino)-2-(piperidin-1-yl)pyrimidin-5-yl)-6-methyl-1,3,5-triazin-2-amine] | 6.99 | < 5.00 |
| Cc1nc(N)nc(-c2cc(CN3CCOCC3)cnc2Nc2ccc3scnc3c2)n1 [Example 129, N-(3-(4-amino-6-methyl-1,3,5-triazin-2-yl)-5-(morpholinomethyl)pyridin-2-yl)benzo[d]thiazol-5-amine] | 7.00 | 7.08 |
| COc1ncc(Nc2ncc(CN3CCOCC3)cc2-c2nc(C)nc(N)n2)cc1F [Example 130, 4-(2-(5-fluoro-6-methoxypyridin-3-ylamino)-5-(morpholinomethyl)pyridin-3-yl)-6-methyl-1,3,5-triazin-2-amine] | 7.70 | 7.85 |
| COc1ccc(Nc2ncc(CNC(C)(C)C)cc2-c2nc(C)nc3[nH]cnc23)cn1 [Example 134, 5-((tert-butylamino)methyl)-N-(6-methoxypyridin-3-yl)-3-(2-methyl-9H-purin-6-yl)pyridin-2-amine] | 6.66 | 5.90 |
| COc1ccc(Nc2ncc(CNC(C)C)cc2-c2nc(C)nc3[nH]cnc23)cn1 [Example 135, 5-((isopropylamino)methyl)-N-(6-methoxypyridin-3-yl)-3-(2-methyl-9H-purin-6-yl)pyridin-2-amine] | 6.92 | 6.36 |
| COc1ccc(Nc2ncc(CNCc3ccncc3)cc2-c2nc(C)nc3[nH]cnc23)cn1 [Example 137, N-(6-methoxypyridin-3-yl)-3-(2-methyl-9H-purin-6-yl)-5-((pyridin-4-ylmethylamino)methyl)pyridin-2-amine] | 7.40 | 6.74 |
| COc1ccc(Nc2ncc(CNCc3cccnc3)cc2-c2nc(C)nc3[nH]cnc23)cn1 [Example 138, N-(6-methoxypyridin-3-yl)-3-(2-methyl-9H-purin-6-yl)-5-((pyridin-3-ylmethylamino)methyl)pyridin-2-amine] | 7.32 | 6.76 |

Further molecules by rising pKi (PI3Kα), results first:

| pKi (PI3Kα) | pIC50 [1] | SMILES |
| --- | --- | --- |
| 6.30 | < 5.00 | COc1ccc(Nc2nc(-c3ccc(F)cc3)ncc2-c2nc(C)nc(N)n2)cn1 [Example 125, 4-(2-(4-fluorophenyl)-4-(6-methoxypyridin-3-ylamino)pyrimidin-5-yl)-6-methyl-1,3,5-triazin-2-amine] |
| 6.74 | 5.91 | CCNc1cnc(Nc2ccc(OC)nc2)c(-c2nc(C)nc3[nH]cnc23)c1 [Example 94, N5-ethyl-N2-(6-methoxypyridin-3-yl)-3-(2-methyl-9H-purin-6-yl)pyridine-2,5-diamine] |
| 6.98 | 6.03 | COCCNc1cnc(Nc2ccc(OC)nc2)c(-c2nc(C)nc3[nH]cnc23)c1 [Example 93, N5-(2-methoxyethyl)-N2-(6-methoxypyridin-3-yl)-3-(2-methyl-9H-purin-6-yl)pyridine-2,5-diamine] |
| 7.01 | 6.35 | Cc1nc(N)cc(-c2nccnc2Nc2cccc3[nH]ncc23)n1 [Example 112, N-(3-(6-amino-2-methylpyrimidin-4-yl)pyrazin-2-yl)-1H-indazol-4-amine] |
| 7.24 | 6.42 | COc1ccc(Nc2ncc(NCc3ccccc3)cc2-c2nc(C)nc3[nH]cnc23)cn1 [Example 91, N5-benzyl-N2-(6-methoxypyridin-3-yl)-3-(2-methyl-9H-purin-6-yl)pyridine-2,5-diamine] |
| 7.27 | 6.91 | COc1ccc(Nc2ncc(CNCc3ccccn3)cc2-c2nc(C)nc3[nH]cnc23)cn1 [Example 136, N-(6-methoxypyridin-3-yl)-3-(2-methyl-9H-purin-6-yl)-5-((pyridin-2-ylmethylamino)methyl)pyridin-2-amine] |
| 7.35 | 6.72 | COc1ccc(Nc2nc(N(C)C)ncc2-c2nc(C)nc(N)n2)cn1 [Example 121, 5-(4-amino-6-methyl-1,3,5-triazin-2-yl)-N4-(6-methoxypyridin-3-yl)-N2,N2-dimethylpyrimidine-2,4-diamine] |
| 7.40 | 6.53 | COc1ccc(Nc2ncc(N3CCC[C@@H]3CO)cc2-c2nc(C)nc3[nH]cnc23)cn1 [Example 101, ((2R)-1-(6-(6-Methoxypyridin-3-Ylamino)-5-(2-Methyl-9H-Purin-6-yl)Pyridin-3-yl)Pyrrolidin-2-yl)Methanol] |
| 7.54 | 6.72 | COc1ccc(Nc2ncc(N3CCC[C@H]3CO)cc2-c2nc(C)nc3[nH]cnc23)cn1 [Example 100, ((2S)-1-(6-(6-Methoxypyridin-3-Ylamino)-5-(2-Methyl-9H-Purin-6-yl)Pyridin-3-yl)Pyrrolidin-2-yl)Methanol] |
| 7.74 | 7.20 | COC(=O)N1CCN(Cc2cnc(Nc3ccc(OC)nc3)c(-c3nc(C)nc4[nH]cnc34)c2)CC1 [Example 86, Methyl 4-((6-(6-Methoxypyridin-3-Ylamino)-5-(2-Methyl-9H-Purin-6-yl)Pyridin-3-yl)Methyl)Piperazine-1-Carboxylate] |
| 8.15 | 7.35 | COc1ccc(Nc2ncc(CN3CCN(S(=O)(=O)N(C)C)CC3)cc2-c2nc(C)nc3[nH]cnc23)cn1 [Example 88, 4-((6-(6-Methoxypyridin-3-Ylamino)-5-(2-Methyl-9H-Purin-6-yl)Pyridin-3-yl)Methyl)-N,N-Dimethylpiperazine-1-Sulfonamide] |
| 8.15 | 7.68 | Cc1nc(N)nc(-c2cc(CN3CCN(S(C)(=O)=O)CC3)cnc2Nc2ccc3ocnc3c2)n1 [Example 128, N-(3-(4-amino-6-methyl-1,3,5-triazin-2-yl)-5-((4-(methylsulfonyl)piperazin-1-yl)methyl)pyridin-2-yl)benzo[d]oxazol-5-amine] |
